Laboratory results taken from ChEMBL document CHEMBL3885861, “Open TG-GATES”.

Species on record: Rattus norvegicus
Assay: Open TG-GATES - Regimen: Single
Format: toxicity, organism-based, Sprague-Dawley
Design: regimen Single, gender Male, age 6 weeks
Conditions: in vivo, po, route gavage; for APTT / Bas / Eos / Fbg / Hb / Ht / Lym / MCH / MCHC / MCV / Mono / Neu / PT / Plat / RBC / Ret / WBC: tissue Blood; for KIDNEY_L / KIDNEY_R / KIDNEY_TOTAL: tissue Kidney; for LIVER: tissue Liver; for A/G / ALP / ALT / AST / BUN / CRE / Ca / Cl / DBIL / GLC / IP / K / LDH / Na / PL / RALB / TBIL / TC / TG / TP / gamma-GTP: tissue Plasma
[1] = 250 mg/kg, 3 h, dose level Middle
[2] = 250 mg/kg, 6 h, dose level Middle
[3] = 250 mg/kg, 9 h, dose level Middle
[4] = 250 mg/kg, 24 h, dose level Middle
[5] = 750 mg/kg, 3 h, dose level High
[6] = 750 mg/kg, 6 h, dose level High
[7] = 750 mg/kg, 9 h, dose level High
[8] = 750 mg/kg, 24 h, dose level High

## CN(C/C=C/C#CC(C)(C)C)Cc1cccc2ccccc12 [TERBINAFINE]
[1]
  TERMINAL_BW: 225.8 g
  APTT: 20 s
  Bas: 0.6%
  Eos: 0.8%
  Fbg: 215.8 mg/dL
  Hb: 13.2 g/dL
  Ht: 39.2%
  Lym: 79.4%
  MCH: 21.8 pg
  MCHC: 33.7%
  MCV: 64.7 fL
  Mono: 2.2%
  Neu: 16.6%
  PT: 12.2 s
  Plat: 125.2 x10_4/uL
  RBC: 606.8 x10_4/ul
  Ret: 7.2%
  WBC: 90.5 x10_2/uL
  KIDNEY_L: 1 g
  KIDNEY_R: 1 g
  KIDNEY_TOTAL: 2 g
  LIVER: 10.4 g
  A/G: 1.7
  ALP: 909.4 IU/L
  ALT: 42.4 IU/L
  AST: 72.8 IU/L
  BUN: 12 mg/dL
  CRE: 0.4 mg/dL
  Ca: 10.6 mg/dL
  Cl: 103.6 meq/L
  DBIL: 0.084 mg/dL
  GLC: 213 mg/dL
  IP: 9.1 mg/dL
  K: 3.9 meq/L
  LDH: 166.8 IU/L
  Na: 141.4 meq/L
  PL: 123.8 mg/dL
  RALB: 3.4 g/dL
  TBIL: 0.1 mg/dL
  TC: 65 mg/dL
  TG: 43.8 mg/dL
  TP: 5.4 g/dL
  gamma-GTP: 1 IU/L
[2]
  TERMINAL_BW: 221.8 g
  APTT: 18.1 s
  Bas: 0.4%
  Eos: 0.8%
  Fbg: 220.6 mg/dL
  Hb: 13.3 g/dL
  Ht: 39.5%
  Lym: 74%
  MCH: 21.5 pg
  MCHC: 33.7%
  MCV: 64 fL
  Mono: 2.4%
  Neu: 22.2%
  PT: 12.3 s
  Plat: 110.3 x10_4/uL
  RBC: 617.4 x10_4/ul
  Ret: 6.8%
  WBC: 90.7 x10_2/uL
  KIDNEY_L: 1 g
  KIDNEY_R: 1 g
  KIDNEY_TOTAL: 2 g
  LIVER: 9.6 g
  A/G: 1.8
  ALP: 842.8 IU/L
  ALT: 36 IU/L
  AST: 70.6 IU/L
  BUN: 11.4 mg/dL
  CRE: 0.4 mg/dL
  Ca: 10.6 mg/dL
  Cl: 102.8 meq/L
  DBIL: 0.086 mg/dL
  GLC: 204 mg/dL
  IP: 9.7 mg/dL
  K: 4 meq/L
  LDH: 156 IU/L
  Na: 141.4 meq/L
  PL: 132.2 mg/dL
  RALB: 3.5 g/dL
  TBIL: 0.2 mg/dL
  TC: 71.8 mg/dL
  TG: 35.2 mg/dL
  TP: 5.4 g/dL
  gamma-GTP: 1 IU/L
[3]
  TERMINAL_BW: 220.9 g
  APTT: 18.2 s
  Bas: 0.6%
  Eos: 1%
  Fbg: 211.6 mg/dL
  Hb: 12.8 g/dL
  Ht: 38.5%
  Lym: 77.8%
  MCH: 20.8 pg
  MCHC: 33.3%
  MCV: 62.3 fL
  Mono: 2.4%
  Neu: 18.2%
  PT: 12.5 s
  Plat: 114.8 x10_4/uL
  RBC: 618 x10_4/ul
  Ret: 6.3%
  WBC: 74.3 x10_2/uL
  KIDNEY_L: 1 g
  KIDNEY_R: 1 g
  KIDNEY_TOTAL: 2 g
  LIVER: 9.1 g
  A/G: 1.6
  ALP: 845 IU/L
  ALT: 31.4 IU/L
  AST: 67.6 IU/L
  BUN: 12 mg/dL
  CRE: 0.4 mg/dL
  Ca: 10.3 mg/dL
  Cl: 103.4 meq/L
  DBIL: 0.074 mg/dL
  GLC: 198.2 mg/dL
  IP: 10.8 mg/dL
  K: 4.1 meq/L
  LDH: 153 IU/L
  Na: 141.8 meq/L
  PL: 122 mg/dL
  RALB: 3.4 g/dL
  TBIL: 0.1 mg/dL
  TC: 64 mg/dL
  TG: 26.6 mg/dL
  TP: 5.5 g/dL
  gamma-GTP: 1.4 IU/L
[4]
  TERMINAL_BW: 237.1 g
  APTT: 18.5 s
  Bas: 0.6%
  Eos: 1%
  Fbg: 223.8 mg/dL
  Hb: 13.4 g/dL
  Ht: 39.8%
  Lym: 79.2%
  MCH: 21.4 pg
  MCHC: 33.8%
  MCV: 63.3 fL
  Mono: 3.2%
  Neu: 15.6%
  PT: 12 s
  Plat: 127.3 x10_4/uL
  RBC: 628.2 x10_4/ul
  Ret: 6.6%
  WBC: 91.5 x10_2/uL
  KIDNEY_L: 1.1 g
  KIDNEY_R: 1.1 g
  KIDNEY_TOTAL: 2.2 g
  LIVER: 11.9 g
  A/G: 1.6
  ALP: 1068.6 IU/L
  ALT: 46.4 IU/L
  AST: 84.6 IU/L
  BUN: 15.4 mg/dL
  CRE: 0.4 mg/dL
  Ca: 10.7 mg/dL
  Cl: 103.2 meq/L
  DBIL: 0.098 mg/dL
  GLC: 191.2 mg/dL
  IP: 8.6 mg/dL
  K: 3.9 meq/L
  LDH: 193.8 IU/L
  Na: 141.4 meq/L
  PL: 135 mg/dL
  RALB: 3.4 g/dL
  TBIL: 0.2 mg/dL
  TC: 72.4 mg/dL
  TG: 84 mg/dL
  TP: 5.5 g/dL
  gamma-GTP: 1.6 IU/L
[5]
  TERMINAL_BW: 226.5 g
  APTT: 19.1 s
  Bas: 0.4%
  Eos: 0.8%
  Fbg: 220.4 mg/dL
  Hb: 12.9 g/dL
  Ht: 38.4%
  Lym: 76.8%
  MCH: 21.1 pg
  MCHC: 33.5%
  MCV: 63 fL
  Mono: 1.8%
  Neu: 19.8%
  PT: 12.3 s
  Plat: 120 x10_4/uL
  RBC: 610.2 x10_4/ul
  Ret: 7.2%
  WBC: 85.9 x10_2/uL
  KIDNEY_L: 1 g
  KIDNEY_R: 1 g
  KIDNEY_TOTAL: 2 g
  LIVER: 9.8 g
  A/G: 1.7
  ALP: 978.4 IU/L
  ALT: 35.6 IU/L
  AST: 69.2 IU/L
  BUN: 9.8 mg/dL
  CRE: 0.4 mg/dL
  Ca: 10.6 mg/dL
  Cl: 103 meq/L
  DBIL: 0.08 mg/dL
  GLC: 204.6 mg/dL
  IP: 9.1 mg/dL
  K: 3.7 meq/L
  LDH: 180.8 IU/L
  Na: 141.6 meq/L
  PL: 128.6 mg/dL
  RALB: 3.4 g/dL
  TBIL: 0.1 mg/dL
  TC: 76.4 mg/dL
  TG: 36 mg/dL
  TP: 5.5 g/dL
  gamma-GTP: 1 IU/L
[6]
  TERMINAL_BW: 226.5 g
  APTT: 18 s
  Bas: 0.6%
  Eos: 0.8%
  Fbg: 217.6 mg/dL
  Hb: 12.8 g/dL
  Ht: 37.9%
  Lym: 77.6%
  MCH: 21.6 pg
  MCHC: 33.8%
  MCV: 63.8 fL
  Mono: 3%
  Neu: 18%
  PT: 12.2 s
  Plat: 124.3 x10_4/uL
  RBC: 595 x10_4/ul
  Ret: 7.2%
  WBC: 79 x10_2/uL
  KIDNEY_L: 1 g
  KIDNEY_R: 1 g
  KIDNEY_TOTAL: 2 g
  LIVER: 9.7 g
  A/G: 1.7
  ALP: 823.4 IU/L
  ALT: 35.4 IU/L
  AST: 70 IU/L
  BUN: 12.4 mg/dL
  CRE: 0.4 mg/dL
  Ca: 10.5 mg/dL
  Cl: 103.2 meq/L
  DBIL: 0.082 mg/dL
  GLC: 206.2 mg/dL
  IP: 9.6 mg/dL
  K: 3.9 meq/L
  LDH: 174.2 IU/L
  Na: 141 meq/L
  PL: 121.2 mg/dL
  RALB: 3.5 g/dL
  TBIL: 0.1 mg/dL
  TC: 68.2 mg/dL
  TG: 36.6 mg/dL
  TP: 5.5 g/dL
  gamma-GTP: 0.8 IU/L
[7]
  TERMINAL_BW: 225.4 g
  APTT: 18.8 s
  Bas: 0.6%
  Eos: 1%
  Fbg: 221.6 mg/dL
  Hb: 12.8 g/dL
  Ht: 38.2%
  Lym: 73.2%
  MCH: 21.3 pg
  MCHC: 33.6%
  MCV: 63.6 fL
  Mono: 2.6%
  Neu: 22.6%
  PT: 12.3 s
  Plat: 114 x10_4/uL
  RBC: 601.8 x10_4/ul
  Ret: 6.8%
  WBC: 85 x10_2/uL
  KIDNEY_L: 1 g
  KIDNEY_R: 1 g
  KIDNEY_TOTAL: 2 g
  LIVER: 9.3 g
  A/G: 1.7
  ALP: 1027.6 IU/L
  ALT: 32.8 IU/L
  AST: 64.2 IU/L
  BUN: 12.2 mg/dL
  CRE: 0.4 mg/dL
  Ca: 10 mg/dL
  Cl: 103.6 meq/L
  DBIL: 0.07 mg/dL
  GLC: 205.6 mg/dL
  IP: 10.4 mg/dL
  K: 4 meq/L
  LDH: 163.2 IU/L
  Na: 141.2 meq/L
  PL: 112.8 mg/dL
  RALB: 3.4 g/dL
  TBIL: 0.1 mg/dL
  TC: 57.6 mg/dL
  TG: 24.4 mg/dL
  TP: 5.4 g/dL
  gamma-GTP: 1 IU/L
[8]
  TERMINAL_BW: 233.7 g
  APTT: 18.6 s
  Bas: 0.8%
  Eos: 1%
  Fbg: 216.6 mg/dL
  Hb: 13.1 g/dL
  Ht: 38.5%
  Lym: 78.8%
  MCH: 21.7 pg
  MCHC: 34%
  MCV: 64.1 fL
  Mono: 3.4%
  Neu: 15.6%
  PT: 12.3 s
  Plat: 122.8 x10_4/uL
  RBC: 601.6 x10_4/ul
  Ret: 6.4%
  WBC: 81.1 x10_2/uL
  KIDNEY_L: 1.1 g
  KIDNEY_R: 1.1 g
  KIDNEY_TOTAL: 2.2 g
  LIVER: 10.8 g
  A/G: 1.8
  ALP: 1101 IU/L
  ALT: 51.6 IU/L
  AST: 89.4 IU/L
  BUN: 13.2 mg/dL
  CRE: 0.4 mg/dL
  Ca: 10.3 mg/dL
  Cl: 103.6 meq/L
  DBIL: 0.076 mg/dL
  GLC: 203.4 mg/dL
  IP: 8.6 mg/dL
  K: 3.7 meq/L
  LDH: 203.6 IU/L
  Na: 141.6 meq/L
  PL: 106 mg/dL
  RALB: 3.6 g/dL
  TBIL: 0.1 mg/dL
  TC: 57.8 mg/dL
  TG: 29.2 mg/dL
  TP: 5.5 g/dL
  gamma-GTP: 1.8 IU/L
